This note sets out measurements from patent publication US8912180B2, “Heterocyclic compound” (Astellas Pharma Inc., priority 2010, dated 2014).

Counter-ions that a name gives are not always drawn.

In assay [1] the target is T1, human PI3Kδ enzyme (Homo sapiens, UniProt O00329).
T1 construct: purchased Millipore Corporation 14-604
Put plainly: PI3Kδ enzyme inhibitory activity (PI3-Kinase HTRF Assay kit). It is filed as biochemical. Conditions: human PI3Kδ 10 ng/well, ATP 30 μM, PIP2 10 μM, room temperature 30 minutes. On the procedure:
1. PI3Kδ Enzyme Inhibitory Activity
For the experiment, a PI3-Kinase HTRF Assay kit (Millipore Corporation, Catalogue No. 33-016) and a human PI3Kδ enzyme (Millipore Corporation, Catalogue No. 14-604) were used. The measurement method was in accordance with the appended instructions. The overview thereof is as follows.
PI3Kδ (10 ng/well), phosphatidylinositol-4,5-bisphosphate (10 μM), ATP (30 μM), and the test compound were mixed in a 384-well plate (total 20 μL), and incubated at room temperature for 30 minutes. EDTA and biotinylated phosphatidylinositol-3,4,5-triphosphate were added thereto to stop the reaction. Thereafter, a Europium labeled anti-GST antibody, a GST bond GRP1 PH domain, and streptavidin-APC were added thereto, followed by incubation overnight. An HTRF ratio was measured using an HTRF plate reader.

Assay [2] concerns the target T2, Human PI3Kα (Homo sapiens, UniProt P42336).
T2 construct: purchased Millipore Corporation 14-602
The experiment in a line: PI3Kα enzyme inhibitory activity (Kinase-Glo Plus luminescence). It is filed as biochemical. Conditions: human PI3Kα 12 ng/well, phosphatidylinositol 0.2 μg/well, 37° C. 3 hours. On the procedure:
2. PI3Kα Enzyme Inhibitory Activity
Human PI3Kα (12 ng/well, Millipore Corporation, Catalogue No. 14-602), phosphatidylinositol (0.2 μg/well), and the test compound were mixed in a 384-well plate in a reaction buffer (50 mM Hepes, 10 mM NaCl, 10 mM MgCl2, 2 mM EGTA, 2 mM DTT, pH 7.3) (total 10 μl), and incubated at 37° C. for 3 hours. After the reaction, 10 μL of a Kinase-Glo Plus reagent (Promega, Catalogue No. V3772) was added thereto, and a luminescence was measured with a luminometer.

In assay [3] the test system is Spleen cells prepared from male LEW/CrlCrlj rats (B cell proliferation). Put plainly: Rat B cell proliferation inhibition test (anti-rat IgM, [3H]thymidine). It is filed as cell-based. Conditions: anti-rat IgM 3 μg/well, 48 hours culture. On the procedure: 4. Rat B Cell Proliferation Inhibition Test
Spleen cells (1.0×10^5 cells/well) prepared from male LEW/CrlCrlj rats (Charles River Laboratories, Japan, Inc.), mouse F(ab′)2 fragment anti-rat IgM (3 μg/well, SouthernBiotech Associates, Inc., Catalogue No. 3082-14) and the test compound dissolved in DMSO (final DMSO concentration 0.1%) were mixed in a 96-well plate using a 10% FCS-containing RPMI-1640 culture medium (total 200 μL). They were cultured in a CO2 incubator for 48 hours and [^3H]thymidine (925 GBq/mmol, Moravek Biochemicals, Inc., Catalogue No. MT6038) was added thereto at 0.037 MBq/well at 4 hours before completion of culture. Cells were harvested in a GF/C glass filter using a cell harvester, and a radioactivity on the filter was measured using a liquid scintillation counter.

T1 sequence (O00329 whole entry): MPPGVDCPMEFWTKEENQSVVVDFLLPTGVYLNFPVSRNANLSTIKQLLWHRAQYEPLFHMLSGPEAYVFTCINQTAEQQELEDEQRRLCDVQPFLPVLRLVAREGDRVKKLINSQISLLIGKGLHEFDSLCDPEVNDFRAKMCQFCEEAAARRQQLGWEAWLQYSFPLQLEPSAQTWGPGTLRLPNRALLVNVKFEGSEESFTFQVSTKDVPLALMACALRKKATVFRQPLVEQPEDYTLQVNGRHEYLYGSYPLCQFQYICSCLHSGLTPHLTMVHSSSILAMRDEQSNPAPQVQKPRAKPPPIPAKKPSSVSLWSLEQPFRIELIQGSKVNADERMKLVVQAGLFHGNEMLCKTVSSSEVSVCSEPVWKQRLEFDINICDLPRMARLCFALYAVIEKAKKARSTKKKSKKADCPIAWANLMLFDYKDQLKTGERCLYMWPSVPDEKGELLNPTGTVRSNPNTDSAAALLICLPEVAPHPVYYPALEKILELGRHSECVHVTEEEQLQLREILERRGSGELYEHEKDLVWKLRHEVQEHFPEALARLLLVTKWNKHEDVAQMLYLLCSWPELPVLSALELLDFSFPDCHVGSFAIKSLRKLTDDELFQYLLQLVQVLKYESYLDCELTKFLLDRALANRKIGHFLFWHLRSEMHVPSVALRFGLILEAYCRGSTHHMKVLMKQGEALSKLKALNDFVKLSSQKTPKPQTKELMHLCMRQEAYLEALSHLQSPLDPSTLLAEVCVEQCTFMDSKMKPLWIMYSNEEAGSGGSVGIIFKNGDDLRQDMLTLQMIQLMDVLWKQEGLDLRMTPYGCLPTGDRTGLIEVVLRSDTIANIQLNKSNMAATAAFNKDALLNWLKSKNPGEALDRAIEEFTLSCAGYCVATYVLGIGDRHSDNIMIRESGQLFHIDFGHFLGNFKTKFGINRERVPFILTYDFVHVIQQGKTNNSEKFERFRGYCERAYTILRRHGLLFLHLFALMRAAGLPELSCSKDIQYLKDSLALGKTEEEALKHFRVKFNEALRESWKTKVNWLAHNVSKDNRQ
T1 sequence (P27986 whole entry partner): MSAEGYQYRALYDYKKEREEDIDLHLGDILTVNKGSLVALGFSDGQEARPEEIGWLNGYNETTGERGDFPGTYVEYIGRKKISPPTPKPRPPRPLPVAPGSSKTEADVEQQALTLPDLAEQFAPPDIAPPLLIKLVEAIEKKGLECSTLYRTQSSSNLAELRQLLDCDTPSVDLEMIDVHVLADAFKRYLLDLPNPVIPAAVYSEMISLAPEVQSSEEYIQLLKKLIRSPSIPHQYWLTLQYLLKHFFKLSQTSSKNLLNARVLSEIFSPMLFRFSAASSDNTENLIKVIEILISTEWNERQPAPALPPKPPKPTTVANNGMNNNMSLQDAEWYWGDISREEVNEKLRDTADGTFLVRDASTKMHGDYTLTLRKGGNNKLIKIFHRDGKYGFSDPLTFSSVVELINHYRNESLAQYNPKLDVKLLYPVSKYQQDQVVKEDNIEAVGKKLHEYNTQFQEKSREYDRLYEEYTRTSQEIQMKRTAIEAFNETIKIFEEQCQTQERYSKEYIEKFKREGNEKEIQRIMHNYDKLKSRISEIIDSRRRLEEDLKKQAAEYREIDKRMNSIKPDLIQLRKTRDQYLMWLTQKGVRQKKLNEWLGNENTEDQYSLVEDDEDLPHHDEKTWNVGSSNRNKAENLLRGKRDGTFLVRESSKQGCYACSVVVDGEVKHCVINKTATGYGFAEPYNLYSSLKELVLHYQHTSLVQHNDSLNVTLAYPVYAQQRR
T2 sequence (P42336 whole entry): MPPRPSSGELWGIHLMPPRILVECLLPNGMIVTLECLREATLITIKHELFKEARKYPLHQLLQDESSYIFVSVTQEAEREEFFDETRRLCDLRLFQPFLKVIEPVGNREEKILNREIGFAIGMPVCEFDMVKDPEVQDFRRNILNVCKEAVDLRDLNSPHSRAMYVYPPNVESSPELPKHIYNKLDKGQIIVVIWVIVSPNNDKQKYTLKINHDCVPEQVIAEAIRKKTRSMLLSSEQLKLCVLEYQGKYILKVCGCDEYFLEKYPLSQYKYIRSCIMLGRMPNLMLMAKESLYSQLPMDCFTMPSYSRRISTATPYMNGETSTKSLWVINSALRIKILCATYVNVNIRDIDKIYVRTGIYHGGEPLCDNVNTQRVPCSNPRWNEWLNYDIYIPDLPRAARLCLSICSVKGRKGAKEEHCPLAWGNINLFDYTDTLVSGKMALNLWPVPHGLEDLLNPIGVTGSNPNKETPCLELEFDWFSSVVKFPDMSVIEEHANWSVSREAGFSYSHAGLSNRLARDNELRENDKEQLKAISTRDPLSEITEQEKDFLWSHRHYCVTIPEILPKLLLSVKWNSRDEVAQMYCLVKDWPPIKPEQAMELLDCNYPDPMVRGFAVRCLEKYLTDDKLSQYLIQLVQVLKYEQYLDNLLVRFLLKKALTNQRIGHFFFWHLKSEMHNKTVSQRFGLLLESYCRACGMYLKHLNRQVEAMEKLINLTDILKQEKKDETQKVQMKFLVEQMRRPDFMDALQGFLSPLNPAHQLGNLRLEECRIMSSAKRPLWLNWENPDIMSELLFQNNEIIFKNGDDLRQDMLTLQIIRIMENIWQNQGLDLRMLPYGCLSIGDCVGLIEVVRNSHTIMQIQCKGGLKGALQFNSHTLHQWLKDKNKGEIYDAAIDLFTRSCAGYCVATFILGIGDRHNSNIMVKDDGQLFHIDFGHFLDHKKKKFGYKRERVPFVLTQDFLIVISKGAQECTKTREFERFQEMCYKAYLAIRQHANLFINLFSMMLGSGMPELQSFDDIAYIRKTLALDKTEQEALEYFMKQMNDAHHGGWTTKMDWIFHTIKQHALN
T2 sequence (P27986 whole entry partner): as the sequence (P27986 whole entry partner) above

For `Fc1ccc(N2CCC(CNc3nc(N4CCOCC4)cc(-n4c(C(F)F)nc5ccccc54)n3)CC2)cc1` [Example 75], the IC50 (in general, the concentration that inhibits the measured activity by half) is 25 nM in assay [1] and 5400 nM in assay [2].
Turning to `CC(=O)N1CCC(CC(=O)N2CC[C@H](Nc3cc(-n4c(C(F)F)nc5ccccc54)nc(N4CCOCC4)n3)C2)CC1` [A463], the IC50 in assay [1] was 27 nM; in assay [2], 3100 nM; in assay [3], 1.4 nM.
Taken in the same sequence, the figures for `CN(CC(=O)NC1CCC(Oc2cc(-n3c(C(F)F)nc4ccccc43)nc(N3CCOCC3)n2)CC1)C1CCC1` (stereo not drawn) [Example 196] were 4.8 nM, above 10000 nM and 3.6 nM.
Turning to `O=C(CN1CCCCC1)N1CC[C@H](Nc2cc(-n3c(C(F)F)nc4ccccc43)nc(N3CCOCC3)n2)C1` [A475], the IC50 in assay [1] amounted to 25 nM; in assay [2], 1400 nM; in assay [3] it was 1.1 nM.
The corresponding values for `O=C(CC1CCCO1)N1CC[C@H](Nc2cc(-n3c(C(F)F)nc4ccccc43)nc(N3CCOCC3)n2)C1` (stereo partly drawn) [A299] are 25 nM, 4900 nM and 2.5 nM.
Regarding `O=C(CNCC1CC1)N[C@H]1CC[C@H](Oc2cc(-n3c(C(F)F)nc4ccccc43)nc(N3CCOCC3)n2)CC1` [Example 133], the values for the IC50 in assay [1] and in assay [2] were 5.2 nM and 5900 nM, respectively.
`CCOC(=O)N1CCN(c2ccc(CNc3nc(N4CCOCC4)cc(-n4c(C(F)F)nc5ccccc54)n3)cc2)CC1` [Example 158]: the IC50 stood at 11 nM in assay [1], 6700 nM in assay [2] and 10 nM in assay [3].
In the case of `CC(C)(C)OC(=O)N1CCC(N2CCC(CNc3nc(N4CCOCC4)cc(-n4c(C(F)F)nc5ccccc54)n3)CC2)CC1` [Example 30], the 50% inhibitory concentration (IC50) in assay [1] is 12 nM; in assay [2], above 3000 nM.
For `O=C(CNC1CCCCC1)N[C@H]1CC[C@H](Oc2cc(-n3c(C(F)F)nc4ccccc43)nc(N3CCOCC3)n2)CC1` [Example 135], the IC50 stood at 3 nM in assay [1], 8000 nM in assay [2] and 2.5 nM in assay [3].
In the case of `O=C(CNC1CCCC1)N[C@H]1CC[C@H](Oc2cc(-n3c(C(F)F)nc4ccccc43)nc(N3CCOCC3)n2)CC1` [Example 134], the IC50 in assay [1] stood at 4.7 nM; in assay [2] it was 6600 nM; in assay [3] it was 3.4 nM.
As to `C[C@H]1COCCN1c1cc(-n2c(C(F)F)nc3ccccc32)nc(NC[C@H]2CCCN(C(=O)OC(C)(C)C)C2)n1` [Example 20], the figures for the IC50 in assay [1] and in assay [2] were 19 nM and 1800 nM, respectively.
The corresponding values for `COc1ccc(N2CCC(CNc3nc(N4CCOCC4)cc(-n4c(C(F)F)nc5ccccc54)n3)CC2)cc1` [Example 78] are 8.5 nM and 2900 nM.
The corresponding values for `C[C@@H]1C[C@H](N2CCC(CNc3nc(N4CCOCC4)cc(-n4c(C(F)F)nc5ccccc54)n3)CC2)C[C@H](C)O1` [Example 194] are 5.8 nM and 3300 nM.
Taken in the same sequence, the figures for `CN1CCC(CNc2cc(-n3c(C(F)F)nc4ccccc43)nc(N3CCOCC3)n2)CC1` [Example 4] were 60 nM and above 3000 nM.
For the compound `CC(C)(C)OC(=O)N1CCC[C@H](CNc2nc(N3CCOCC3)cc(-n3c(C(F)F)nc4ccccc43)n2)C1` [Example 18], the IC50 in assay [1] is 50 nM; in assay [2], 7700 nM.
Taken in the same sequence, the figures for `FC(F)c1nc2ccccc2n1-c1cc(N2CCOCC2)nc(NCC23CCC(N4CCOCC4)(CC2)CC3)n1` [Example 120] were 27 nM and 6400 nM.
In the case of `FC(F)c1nc2ccccc2n1-c1cc(N2CCOCC2)nc(NCC2CCN(c3ccccc3)CC2)n1` [Example 44, 4-[2-(difluoromethyl)-1H-benzimidazol-1-yl]-6-(morpholin-4-yl)-N-[(1-phenylpiperidin-4-yl)methyl]pyrimidin-2-amine dihydrochloride], the IC50 worked out at 14 nM in assay [1] and 5000 nM in assay [2].
The corresponding values for `FC(F)c1nc2ccccc2n1-c1cc(N[C@H]2CCC[C@@H](N3CCOCC3)C2)nc(N2CCOCC2)n1` [Example 123] are 4.5 nM and above 3000 nM.
Taken in the same sequence, the figures for `FC(F)c1nc2ccccc2n1-c1cc(N2CCOCC2)nc(NCCC2CCN(Cc3ccccc3)CC2)n1` [Example 25] were 69 nM and 6200 nM.
As to `CC(C)(C)OC(=O)N1CCC(CNc2nc(N3CCOC[C@@H]3CF)cc(-n3c(C(F)F)nc4ccccc43)n2)CC1` [Example 16], the IC50 in assay [1] is 69 nM; in assay [2], above 10000 nM.
For `CN(C)CC(=O)N1CCC(CNc2nc(N3CCOCC3)nc(-n3c(C(F)F)nc4ccccc43)n2)CC1` [Example 67], the IC50 in assay [1] amounted to 47 nM; in assay [2], 990 nM.
Regarding `CN(C)CC(=O)N1CC(Nc2nc(N3CCOCC3)cc(-n3c(C(F)F)nc4ccccc43)n2)C1` [Example 69], the IC50 in assay [1] worked out at 22 nM.
Take `CC(=O)N1CCC(CC(=O)N2CC(Nc3cc(-n4c(C(F)F)nc5ccccc54)nc(N4CCOCC4)n3)C2)CC1` [A564]: the IC50 in assay [1] turned out to be 19 nM; in assay [3], 2.2 nM.
In the case of `CC(C)(C)OC(=O)N1CC[C@H](Nc2nc(N3CCOCC3)cc(-n3c(C(F)F)nc4ccccc43)n2)C1` [Example 1, tert-butyl (3S)-3-({4-[2-(difluoromethyl)-1H-benzimidazol-1-yl]-6-morpholin-4-ylpyrimidin-2-yl}amino)pyrrolidine-1-carboxylate], the results for the IC50 in assay [1] and in assay [2] were 29 nM and 2800 nM, respectively.
Turning to `O=C(C1CCOC1)N1CC[C@H](Nc2cc(-n3c(C(F)F)nc4ccccc43)nc(N3CCOCC3)n2)C1` (stereo partly drawn) [A464], the IC50 in assay [1] came to 10 nM; in assay [2] it was 2200 nM.
In the case of `CN(C)CC(=O)N[C@H]1CCC[C@H](Nc2cc(-n3c(C(F)F)nc4ccccc43)nc(N3CCOCC3)n2)C1` [Example 100], the 50% inhibitory concentration (IC50) is 5.7 nM in assay [1] and above 3000 nM in assay [2].
For the compound `OC1CCC(N2CCC(CNc3nc(N4CCOCC4)cc(-n4c(C(F)F)nc5ccccc54)n3)CC2)CC1` (stereo not drawn) [Example 28], the results for the half-inhibitory concentration (IC50) in assay [1] and in assay [2] were 35 nM and above 3000 nM, respectively.
The corresponding values for `FC(F)c1nc2ccccc2n1-c1cc(N2CCOCC2)nc(NCC2CCN(CC3CCOCC3)CC2)n1` [Example 39] are 27 nM and 3900 nM.
In the case of `C[C@H]1COCCN1c1cc(-n2c(C(F)F)nc3ccccc32)nc(NCC2CCN(C(=O)OC(C)(C)C)CC2)n1` [Example 13], the IC50 in assay [1] is 36 nM; in assay [2] it was 980 nM.
The corresponding values for `CN(C)CCN1CC[C@H](Nc2nc(N3CCOCC3)cc(-n3c(C(F)F)nc4ccccc43)n2)C1` [Example 45, 4-[2-(difluoromethyl)-1H-benzimidazol-1-yl]-N-{(3S)-1-[2-(dimethylamino)ethyl]pyrrolidin-3-yl}-6-morpholin-4-ylpyrimidin-2-amine dihydrochloride] are 56 nM and 6800 nM.
As for `FCC(CF)N1CCC(CNc2nc(N3CCOCC3)cc(-n3c(C(F)F)nc4ccccc43)n2)CC1` [Example 35], the values for the 50% inhibitory concentration (IC50) in assay [1] and in assay [2] were 18 nM and 4200 nM, respectively.
Taken in the same sequence, the figures for `Fc1ccccc1N1CCC(CNc2nc(N3CCOCC3)cc(-n3c(C(F)F)nc4ccccc43)n2)CC1` [Example 77] were 18 nM and 5400 nM.
The corresponding values for `COC(=O)N[C@@H]1CCN([C@H]2CC[C@H](Nc3cc(-n4c(C(F)F)nc5ccccc54)nc(N4CCOCC4)n3)CC2)C1=O` [Example 371] are 35 nM and 5000 nM.
